Source: US11555055B2, “Peptide inhibitors of insulin-degrading enzyme” (The Regents of the University of California, priority 2017, dated 2023)
Where two headings read alike, the source gives them in different places. Where a SMILES comes first, the peptide text is derived from it. Bridges are numbered along the chain shown (N, C = ends).

Assays:
IDE [1] = target: T1, IDE (Homo sapiens, UniProt P14735); assay: IDE protease activity assay, insulin degradation quantified by ELISA; type: biochemical
T1 construct: made in house; host or cells: bacteria
T1 sequence (P14735 1-1019): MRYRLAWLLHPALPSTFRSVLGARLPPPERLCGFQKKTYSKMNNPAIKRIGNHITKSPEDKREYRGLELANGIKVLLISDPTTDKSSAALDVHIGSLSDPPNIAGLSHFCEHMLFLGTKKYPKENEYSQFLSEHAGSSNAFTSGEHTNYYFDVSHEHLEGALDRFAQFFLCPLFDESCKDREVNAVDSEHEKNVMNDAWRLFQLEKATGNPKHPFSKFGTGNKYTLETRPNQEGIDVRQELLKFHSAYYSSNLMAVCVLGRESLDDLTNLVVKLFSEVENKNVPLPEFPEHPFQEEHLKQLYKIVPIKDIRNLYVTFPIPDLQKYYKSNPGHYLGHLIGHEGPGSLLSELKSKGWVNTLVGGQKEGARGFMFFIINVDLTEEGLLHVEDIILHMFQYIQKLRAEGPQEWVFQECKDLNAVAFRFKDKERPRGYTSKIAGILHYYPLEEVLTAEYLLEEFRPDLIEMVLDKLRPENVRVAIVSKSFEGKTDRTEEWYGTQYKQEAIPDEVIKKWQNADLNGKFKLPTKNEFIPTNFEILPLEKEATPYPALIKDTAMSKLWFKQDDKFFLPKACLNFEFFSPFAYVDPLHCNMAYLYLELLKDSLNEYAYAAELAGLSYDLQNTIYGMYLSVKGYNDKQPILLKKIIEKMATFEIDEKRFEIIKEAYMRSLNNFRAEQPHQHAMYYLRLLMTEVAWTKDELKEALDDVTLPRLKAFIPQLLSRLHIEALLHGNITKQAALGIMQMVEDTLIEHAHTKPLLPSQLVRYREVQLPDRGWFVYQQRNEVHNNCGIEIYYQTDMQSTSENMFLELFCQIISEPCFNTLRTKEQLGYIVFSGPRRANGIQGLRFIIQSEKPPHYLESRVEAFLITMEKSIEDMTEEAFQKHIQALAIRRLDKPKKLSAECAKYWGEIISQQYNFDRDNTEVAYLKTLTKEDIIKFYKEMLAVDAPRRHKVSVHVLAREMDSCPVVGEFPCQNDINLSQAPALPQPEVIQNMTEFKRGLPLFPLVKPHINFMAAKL
Method: To assess the extent to which these peptide sequences inhibit IDE, we quantified their potency in protease activity assays using recombinant human IDE and two different substrates: FRET1, a fluorogenic peptide (45), and recombinant human insulin.
(§1) Degradation Assays—IDE activity was quantified by monitoring the degradation of (7-methoxycoumarin-4-yl)acetic acid-[…](2,4-dinitrophenyl) (FRET1, 5 μM) (49,55), fluoresceinated and biotinylated amyloid β-protein (FAβB; 500 nM) or recombinant human insulin (50 nM) in PBS supplemented with 0.05% BSA. FRET1 degradation was measured by changes in fluorescence (λex=340 nm, λem=420 nm); FAβB degradation was monitored by fluorescence polarization (λex=488 nm, λem=525 nm), as described (56); and insulin degradation was quantified by ELISA. In vitro activity assays incorporated recombinant human IDE (1 nM) purified from bacteria (35). For quantitation of insulin degradation in primary murine skin fibroblasts, cells (1×10^5/well) were plated in 96-well plates and maintained in DMEM supplemented with 10% fetal bovine serum (FBS), 2 mM glutamine, penicillin and streptomycin. After addition of insulin (10 nM or 100 nM), samples of conditioned medium were removed daily and quickly frozen, then insulin levels were quantified in parallel by ELISA according to manufacturer's recommendations (Crystal Chem, Downers Grove, Ill., USA). Assessment of the activity of P12-3A against a variety of matrix-metalloproteases was conducted using the Matrix Metalloproteinase (MMP) Inhibitor Profiling Kit, Fluorometric RED (Enzo Life Sciences, Inc., Farmingdale, N.Y., USA) according to manufacturer's recommendations using the broad-spectrum MMP inhibitor, NNGH, as a positive control.

IDE [2] = target: T1, IDE; assay: IDE activity assay, FAβB (amyloid β-protein) degradation by fluorescence polarization; type: biochemical; settings: P12-3A 100 μM
Method: as §1, with “Assessment of the activity of P12-3A against a variety of matrix-metalloproteases was conducted using the Matrix Metalloproteinase (MMP) Inhibitor Profiling Kit, Fluorometric RED (Enzo Life Sciences, Inc., Farmingdale, N.Y., USA) according to manufacturer's recommendations using the broad-spectrum MMP inhibitor, NNGH, as a positive control.” left out

[3] = tested on: primary murine skin fibroblasts; assay: Insulin degradation in cultured skin fibroblasts, insulin in medium by ELISA; type: cell-based, mouse; settings: 100 μM P12-3A, 10 nM insulin, up to day 4, logarithmically growing cells
Method: FIG. 4A-F. Effects of P12-3A on cultured skin cells. A, Insulin concentrations as a function of time in logarithmically growing primary murine skin fibroblasts in the absence or presence of P12-3A (100 μM). […] Data are mean±SEM of 4 independent replications. *P<0.05, **P<0.01. B, Proliferation of cells in the absence or presence of P12-3A (100 μM). […] C,D,E, P12-3A (100 μM) potentiates insulin-induced collagen production in skin fibroblasts. Collagen production was assessed by COL1A1 mRNA levels (C), levels of hydroxyproline secreted into the medium (D), and cell-associated mature alpha-1 type I collagen levels detected by Western blotting (E). […] Migration of HaCaT cells 48 h after induction of a scratch wound in the presence of the indicated quantities of insulin and/or P12-3A (100 μM). […]
Insulin promotes wound healing and overall skin health by affecting a number of processes, including cell proliferation (2,3), cell migration (5,6), and the production and secretion of ECM components, particularly type I collagen (7-13). We therefore assessed the ability of P12-3A to influence these processes in cultured skin fibroblasts and keratinocytes. To that end, primary mouse skin fibroblasts were grown for 4 d in multiple concentrations of insulin in the presence or absence of P12-3A, and insulin concentration over time was monitored by ELISA. […]

Ki (IDE [1]; deliberately cyclized, highly pure cosmetic-grade P12-3A, n=6, read-out: Ki against insulin degradation): 2.5 ± 0.31 µM
Ki (IDE [1]; substrate recombinant human insulin, Ki converted from IC50 with the Cheng-Prusoff equation, read-out: Ki Insulin): 4.1 ± 0.3 µM
inhibition of IDE in selectivity panel (IDE [2]): significant inhibition
Compound: CC(C)C[C@H](NC(=O)[C@H](CO)NC(=O)[C@@H](N)CCC(N)=O)C(=O)N1CCC[C@H]1C(=O)N[C@@H](Cc1c[nH]c2ccccc12)C(=O)N[C@H]1CSSC[C@@H](C(=O)N[C@H](C(=O)N[C@H](C(N)=O)[C@@H](C)O)C(C)C)NC(=O)[C@H](Cc2c[nH]cn2)NC(=O)[C@@H]2CCCN2C(=O)[C@H](Cc2ccc(O)cc2)NC1=O [Peptide P12-3A] (H-QSLPWCYPHCVT-NH2; disulfide 6-10 (inferred))
insulin levels over time in cell culture [3]: remain constant
